Assay results: patent US6737383B1, “Herbicidal oxadiazolidines” (priority 1999, dated 2004)

Legend:
bedstraw = assay: Test B pre/postemergence bedstraw; type: in vivo, Galium aparine
How it was run: (§1)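 Response is a visual 0-to-10 score relative to untreated plants, where 0 means no effect and 10 means complete control, taken twelve to sixteen days after application. Treatments went onto soil at planting and onto foliage of 1- to 4-leaf plants, using a surfactant-containing non-phytotoxic solvent.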

blackgrass = assay: Test B pre/postemergence blackgrass; type: in vivo, Alopecurus myosuroides
How it was run: as §1

surinam grass = assay: Test B pre/postemergence surinam grass; type: in vivo, Brachiaria decumbens
How it was run: as §1

cocklebur = assay: Test B pre/postemergence cocklebur; type: in vivo, Xanthium strumarium; conditions: for Cocklebur plant response rating: scale of 0 to 10 where 0 is no effect and 10 is complete control
How it was run: as §1

corn = assay: Test B pre/postemergence corn; type: in vivo, Zea mays; conditions: for Corn plant response rating: scale of 0 to 10 where 0 is no effect and 10 is complete control
How it was run: as §1

morningglory = assay: Test B pre/postemergence morningglory; type: in vivo, Ipomoea hederacea; conditions: for Morningglory plant response rating: scale of 0 to 10 where 0 is no effect and 10 is complete control
How it was run: as §1

pigweed = assay: Test B pre/postemergence pigweed; type: in vivo, Amaranthus retroflexus; conditions: for Redroot pigweed plant response rating: scale of 0 to 10 where 0 is no effect and 10 is complete control
How it was run: as §1

rape = assay: Test B pre/postemergence rape; type: in vivo, Brassica napus; conditions: for Rape plant response rating: scale of 0 to 10 where 0 is no effect and 10 is complete control
How it was run: as §1

velvetleaf = assay: Test B pre/postemergence velvetleaf; type: in vivo, Abutilon theophrasti; conditions: for Velvetleaf plant response rating: scale of 0 to 10 where 0 is no effect and 10 is complete control
How it was run: as §1

wheat = assay: Test B pre/postemergence wheat; type: in vivo, Triticum aestivum; conditions: for Wheat plant response rating: scale of 0 to 10 where 0 is no effect and 10 is complete control
How it was run: as §1

wild oat = assay: Test B pre/postemergence wild oat; type: in vivo, Avena fatua; conditions: for Wild oats plant response rating: scale of 0 to 10 where 0 is no effect and 10 is complete control
How it was run: as §1

purple nutsedge = assay: Test B pre/postemergence purple nutsedge; type: in vivo, Cyperus rotundus; conditions: for Nutsedge plant response rating: scale of 0 to 10 where 0 is no effect and 10 is complete control
How it was run: as §1

rice = assay: Test B flood test rice; type: in vivo, Oryza sativa
How it was run: (§2)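 Flood test on plants grown to the 2-leaf stage; treated plants kept in greenhouse twelve to sixteen days, then visually rated against controls on a 0 (no effect) to 10 (complete control) scale.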

smallflower flatsedge = assay: Test B flood test smallflower flatsedge; type: in vivo, Cyperus difformis
How it was run: as §2

duck salad = assay: Test B flood test duck salad; type: in vivo, Heteranthera limosa
How it was run: as §2

bamyardgrass = assay: Test B flood test barnyardgrass; type: in vivo, Echinochloa crus-galli
How it was run: as §2

[1] = Postemergence, Rate 125 g/ha, scale 0 to 10, 0 is no effect, 10 is complete control
[2] = Preemergence, Rate 62 g/ha, scale 0 to 10 (0 no effect, 10 complete control)
[3] = Preemergence, Rate 250 g/ha, scale of 0 to 10 where 0 is no effect and 10 is complete control
[4] = Preemergence, Rate 500 g/ha, scale of 0 to 10 where 0 is no effect and 10 is complete control
[5] = Rate 62 g/ha, Postemergence, scale of 0 to 10 where 0 is no effect and 10 is complete control
[6] = Rate 250 g/ha, Postemergence, scale of 0 to 10 where 0 is no effect and 10 is complete control
[7] = Rate 500 g/ha, Postemergence, scale 0 to 10, 0 no effect, 10 complete control
[8] = Postemergence (flood test), Rate 125 g/ha, scale 0 to 10, 0 is no effect, 10 is complete control
[9] = Rate 62 g/ha, Postemergence (flood test species), scale of 0 to 10 where 0 is no effect and 10 is complete control
[10] = Rate 62 g/ha, flood test species, Pre-emergence, visual evaluation after twelve to sixteen days
[11] = Rate 125 g/ha, Pre-emergence, flood test species, scale 0 to 10 where 0 is no effect and 10 is complete control
[12] = Rate 250 g/ha, Pre-emergence, flood-test species, scale 0 to 10, 0 is no effect, 10 is complete control
[13] = Rate 500 g/ha, Pre-emergence, flood test species, scale 0 to 10 (0 no effect, 10 complete control)

CCC(CC)n1c(=O)on(C(=O)N(c2ccc(F)cc2)C(C)C)c1=O [Compound 358]
Plant response rating, Bedstraw (bedstraw; [1]): 2
Plant response rating, Bedstraw (bedstraw; [2]): 0
Bedstraw plant response rating (0 to 10 scale) (bedstraw; Preemergence, Rate 125 g/ha): 9
Bedstraw plant response rating (bedstraw; [3]): 10
Bedstraw plant response rating (bedstraw; [4]): 10
Bedstraw plant response rating (bedstraw; [5]): 0
Plant response rating, Bedstraw (bedstraw; [6]): 3
Plant response rating, Bedstraw (bedstraw; [7]): 6
Plant response rating, Blackgrass (blackgrass; [1]): 6
Plant response rating, Blackgrass (blackgrass; [2]): 4
Blackgrass plant response rating (0 to 10 scale) (blackgrass; Preemergence, Rate 125 g/ha): 8
Blackgrass plant response rating (blackgrass; [3]): 10
Blackgrass plant response rating (blackgrass; [4]): 10
Blackgrass plant response rating (blackgrass; [5]): 2
Plant response rating, Blackgrass (blackgrass; [6]): 8
Plant response rating, Blackgrass (blackgrass; [7]): 8
Plant response rating, B. signalgrass (surinam grass; [1]): 0
Plant response rating, B. signalgrass (surinam grass; [2]): 1
B. signalgrass plant response rating (0 to 10 scale, 0 is no effect, 10 is complete control) (surinam grass; Preemergence, Rate 125 g/ha): 3
B. signalgrass plant response rating (surinam grass; [3]): 5
B. signalgrass plant response rating (surinam grass; [4]): 7
B. signalgrass plant response rating (surinam grass; [5]): 0
Plant response rating, B. signalgrass (surinam grass; [6]): 1
Plant response rating, B. signalgrass (surinam grass; [7]): 2
Plant response rating, Cocklebur (cocklebur; [1]): 0
Plant response rating, Cocklebur (cocklebur; [2]): 0
Cocklebur plant response rating (0 to 10 scale) (cocklebur; Preemergence, Rate 125 g/ha): 0
Cocklebur plant response rating (cocklebur; Preemergence, Rate 250 g/ha): 0
Cocklebur plant response rating (cocklebur; Preemergence, Rate 500 g/ha): 0
Cocklebur plant response rating (cocklebur; Rate 62 g/ha, Postemergence): 0
Plant response rating, Cocklebur (cocklebur; [7]): 0
Plant response rating, Corn (corn; [1]): 0
Plant response rating, Corn (corn; [2]): 0
Corn plant response rating (0 to 10 scale) (corn; Preemergence, Rate 125 g/ha): 0
Corn plant response rating (corn; Preemergence, Rate 250 g/ha): 2
Corn plant response rating (corn; Preemergence, Rate 500 g/ha): 6
Corn plant response rating (corn; Rate 62 g/ha, Postemergence): 0
Plant response rating, Corn (corn; [7]): 0
Plant response rating, Morningglory (morningglory; [1]): 5
Plant response rating, Morningglory (morningglory; [2]): 0
Morningglory plant response rating (0 to 10 scale) (morningglory; Preemergence, Rate 125 g/ha): 0
Morningglory plant response rating (morningglory; Preemergence, Rate 250 g/ha): 3
Morningglory plant response rating (morningglory; Preemergence, Rate 500 g/ha): 5
Morningglory plant response rating (morningglory; Rate 62 g/ha, Postemergence): 3
Plant response rating, Morningglory (morningglory; [7]): 7
Plant response rating, Redroot pigweed (pigweed; [1]): 3
Plant response rating, Redroot pigweed (pigweed; [2]): 7
Redroot pigweed plant response rating (0 to 10 scale) (pigweed; Preemergence, Rate 125 g/ha): 9
Redroot pigweed plant response rating (pigweed; Preemergence, Rate 250 g/ha): 10
Redroot pigweed plant response rating (pigweed; Preemergence, Rate 500 g/ha): 10
Redroot pigweed plant response rating (pigweed; Rate 62 g/ha, Postemergence): 3
Plant response rating, Redroot pigweed (pigweed; [7]): 6
Plant response rating, Rape (rape; [1]): 1
Plant response rating, Rape (rape; [2]): 0
Rape plant response rating (0 to 10 scale) (rape; Preemergence, Rate 125 g/ha): 0
Rape plant response rating (rape; Preemergence, Rate 250 g/ha): 4
Rape plant response rating (rape; Preemergence, Rate 500 g/ha): 4
Rape plant response rating (rape; Rate 62 g/ha, Postemergence): 1
Plant response rating, Rape (rape; [7]): 4
Plant response rating, Velvetleaf (velvetleaf; [1]): 2
Plant response rating, Velvetleaf (velvetleaf; [2]): 3
Velvetleaf plant response rating (0 to 10 scale) (velvetleaf; Preemergence, Rate 125 g/ha): 4
Velvetleaf plant response rating (velvetleaf; Preemergence, Rate 250 g/ha): 5
Velvetleaf plant response rating (velvetleaf; Preemergence, Rate 500 g/ha): 8
Velvetleaf plant response rating (velvetleaf; Rate 62 g/ha, Postemergence): 2
Plant response rating, Velvetleaf (velvetleaf; [7]): 3
Plant response rating, Wheat (wheat; [1]): 3
Plant response rating, Wheat (wheat; [2]): 0
Wheat plant response rating (0 to 10 scale) (wheat; Preemergence, Rate 125 g/ha): 0
Wheat plant response rating (wheat; Preemergence, Rate 250 g/ha): 1
Wheat plant response rating (wheat; Preemergence, Rate 500 g/ha): 3
Wheat plant response rating (wheat; Rate 62 g/ha, Postemergence): 2
Plant response rating, Wheat (wheat; [7]): 5
Plant response rating, Wild oats (wild oat; [1]): 3
Plant response rating, Wild oats (wild oat; [2]): 4
Wild oats plant response rating (0 to 10 scale) (wild oat; Preemergence, Rate 125 g/ha): 5
Wild oats plant response rating (wild oat; Preemergence, Rate 250 g/ha): 9
Wild oats plant response rating (wild oat; Preemergence, Rate 500 g/ha): 10
Wild oats plant response rating (wild oat; Rate 62 g/ha, Postemergence): 0
Plant response rating, Wild oats (wild oat; [7]): 7
Plant response rating, Nutsedge (purple nutsedge; [1]): 0
Plant response rating, Nutsedge (purple nutsedge; [2]): 0
Nutsedge plant response rating (0 to 10 scale) (purple nutsedge; Preemergence, Rate 125 g/ha): 0
Nutsedge plant response rating (purple nutsedge; Preemergence, Rate 250 g/ha): 0
Nutsedge plant response rating (purple nutsedge; Preemergence, Rate 500 g/ha): 0
Nutsedge plant response rating (purple nutsedge; Rate 62 g/ha, Postemergence): 0
Plant response rating, Nutsedge (purple nutsedge; [7]): 0
Plant response rating, Rice (rice; [8]): 0
Rice plant response rating (rice; [9]): 0
Plant response rating, Rice (0 to 10 scale, 0 is no effect, 10 is complete control) (rice; [10]): 0
Rice plant response rating (rice; [11]): 0
Rice plant response rating (rice; [12]): 0
Plant response rating, Rice (rice; Rate 500 g/ha, listed under Postemergence (flood test species), scale 0 to 10, 0 no effect, 10 complete control): 0
Rice plant response rating (rice; [13]): 8
Plant response rating, S. Flatsedge (smallflower flatsedge; [8]): 0
S. Flatsedge plant response rating (smallflower flatsedge; [9]): 0
Plant response rating, S. Flatsedge (0 to 10 scale, 0 is no effect, 10 is complete control) (smallflower flatsedge; [10]): 0
S. Flatsedge plant response rating (smallflower flatsedge; [11]): 6
S. Flatsedge plant response rating (smallflower flatsedge; [12]): 8
S. Flatsedge plant response rating (smallflower flatsedge; [13]): 8
Plant response rating, Ducksalad (duck salad; [8]): 2
Ducksalad plant response rating (duck salad; [9]): 0
Plant response rating, Ducksalad (0 to 10 scale, 0 is no effect, 10 is complete control) (duck salad; [10]): 0
Ducksalad plant response rating (duck salad; [11]): 0
Ducksalad plant response rating (duck salad; [12]): 0
Ducksalad plant response rating (duck salad; [13]): 2
Plant response rating, Barnyardgrass (bamyardgrass; [8]): 2
Barnyardgrass plant response rating (bamyardgrass; [9]): 2
Plant response rating, Barnyardgrass (0 to 10 scale, 0 is no effect, 10 is complete control) (bamyardgrass; [10]): 0
Barnyardgrass plant response rating (bamyardgrass; [11]): 0
Plant response rating, Barnyardgrass (bamyardgrass; Rate 250 g/ha, Postemergence (flood test species), scale of 0 to 10 where 0 is no effect and 10 is complete control): 9
Barnyardgrass plant response rating (bamyardgrass; [12]): 9
Barnyardgrass plant response rating (bamyardgrass; [13]): 9
